Measured values as given in patent US20260317335A1, “COMPOUNDS OF FUSED PYRROLE RINGS OR FUSED PYRIDINE RINGS” (PHARMAENGINE, INC., priority 2023, published 2026).

Each compound was assayed on HCC1569 (CCNE1-amplified breast cancer cell line) (assay: Cell Proliferation Assay (CellTiter-Glo, 7 days)).
Assay type: cell-based
Protocol: The sensitivity of cancer cell lines with normal or elevated CCNE1 levels to test compounds was evaluated in a cell proliferation assay. Cell lines were maintained in ATCC-recommended culture media supplemented with 10% FBS and 1% penicillin/streptomycin in a humidified 5% CO2 incubator. All test compounds were stored as 20 mM DMSO stock solutions.
On Day 0, CCNE1-wild type (wt) and CCNE1-amplified (amp) cells were seeded into 384-well plates and incubated for 16 to 24 hours in a humidified 5% CO2 incubator. On Day 1, test compounds were dispensed into wells at specified concentrations (n=2), with DMSO volume normalized to the highest concentration. Plates with compound-treated cells were incubated for 7 days in a humidified 5% CO2 incubator.
On Day 7, plates were removed from the incubator and equilibrated to room temperature. Relative inhibition was assessed by adding CellTiter-Glo reagent. Data were plotted as a percentage of the DMSO control for each compound in each cell line. IC50 values were calculated using a four-parameter nonlinear regression model (GraphPad Prism).

First: Cc1ccc2[nH]ncc2c1-n1c(N)c2c3c(c(C)c(C)nc31)C=CNC2=O [Compound 126]
Second: Cc1nc2c3c(c1C)C=CNC(=O)c3c(N)n2-c1c(C)c(F)cc2[nH]ncc12 [Compound 138]
The IC50 of the first is lower: 0.666 µM for the first, over 1 µM for the second.

First: Cc1nc2c3c(c1C)C=CNC(=O)c3c(N)n2-c1c(Cl)cc(F)c2[nH]ncc12 [Compound 136]
Second: Cc1nc2c3c(c1C)C=CNC(=O)c3c(N)n2-c1c(Cl)c(F)cc2[nH]ncc12 [Compound 137]
The IC50 of the first is higher: over 1 µM for the first, 0.566 µM for the second.

Cc1cc2c(C(N)=O)c(N)n(-c3c(C)ccc(O)c3C)c2nc1C [Rp6306, reference compound] gave an IC50 of 0.018 µM.
